According to the supplement of paper PMC10307832:

Legend:
Experiment in all cases: relative viability (nuclei count vs DMSO), 5 days (fraction); higher = more cells survive
Darinaparsin = compound: C[As](C)SC[C@H](NC(=O)CC[C@H](N)C(=O)O)C(=O)NCC(=O)O [Darinaparsin]
Outline: (§1)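 Lung cancer cell lines in 1536-well plates were kept overnight at 37 °C, then pinned with five library-drug doses (not always all listed) spaced by √10 on vehicle-anchored plates. After 5 days without medium change, cells were fixed, permeabilised and Hoechst-stained in one step, imaged at 4×, and nuclei were counted with MetaXpress. Viability is treated-well nuclei divided by vehicle-well nuclei, taken as the median over plates. Plates passed only with control CV below 25% and at least one doubling.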

QS11 = compound: C1CC2=C(C1)C=C(C=C2)OC3=NC(=C4C(=N3)N(C=N4)CC5=CC=C(C=C5)C6=CC=CC=C6)N[C@@H](CC7=CC=CC=C7)CO [QS11]
Outline: as §1

AZ628 = compound: CC1=C(C=C(C=C1)NC(=O)C2=CC(=CC=C2)C(C)(C)C#N)NC3=CC4=C(C=C3)N=CN(C4=O)C [AZ628]
Outline: as §1

Cell Line | relative viability (Darinaparsin; 0.08 µM) | relative viability (Darinaparsin; 0.8 µM) | relative viability (Darinaparsin; 2.53 µM) | relative viability (Darinaparsin; 8 µM) | relative viability (QS11; 0.08 µM) | relative viability (QS11; 0.253 µM) | relative viability (QS11; 0.8 µM) | relative viability (QS11; 2.53 µM) | relative viability (QS11; 8 µM) | relative viability (AZ628; 0.08 µM) | relative viability (AZ628; 0.253 µM) | relative viability (AZ628; 0.8 µM) | relative viability (AZ628; 2.53 µM) | relative viability (AZ628; 8 µM)
201T | 0.996 | 0.998 | 0.947 | 0.986 | 0.994 | 0.909 | 0.819 | 0.895 | 0.828 | 1.03 | 0.997 | 1.07 | 1.06 | 1.04
A549 | 1 | 0.987 | 0.991 | 1.21 | 0.974 | 0.971 | 0.829 | 0.912 | 0.927 | 1.02 | 0.865 | 0.787 | 0.897 | 0.452
A-427 | 1.1 | 0.96 | 1.03 | 1.13 | 0.862 | 1.05 |  | 1.05 | 1.04 | 0.999 | 0.891 | 0.884 | 0.919 | 0.436
ABC-1 | 0.952 | 0.956 | 0.928 | 0.968 | 1 | 0.957 | 0.895 | 1.17 | 1.15 | 1.12 | 0.727 | 0.873 | 0.793 | 0.767
BEN | 1.08 | 1.03 | 0.92 | 1.3 | 0.821 | 1.03 | 1.13 | 1.1 | 1.25 | 1.11 | 0.838 | 0.899 | 1.01 | 0.843
CAL-12T | 1.15 | 1 | 0.985 | 1.11 | 0.96 | 0.986 | 0.96 | 0.908 | 0.873 | 0.987 | 0.831 | 0.81 | 0.806 | 0.685
COR-L23 | 1.11 | 0.995 | 0.96 | 1.37 | 1.02 | 1.01 | 0.827 | 0.918 | 0.648 | 1.08 | 1.1 | 0.957 | 1.12 | 0.614
COR-L 105 | 0.996 | 0.986 | 0.781 | 1.03 | 0.895 | 0.89 | 0.822 | 0.892 | 0.831 | 1.01 | 1.14 | 0.951 | 0.928 | 0.592
Calu-6 | 1.2 | 0.99 | 1.01 | 1.14 | 1.11 | 1.06 | 0.941 | 1.1 | 1.07 | 1.02 | 0.899 | 0.754 | 0.784 | 0.207
ChaGo-K-1 | 1.07 | 1.01 | 0.949 | 1.03 |  | 1 | 1.11 | 1.09 | 1.14 | 1.14 | 0.965 | 0.984 | 1.06 | 1.01
EBC-1 | 1.2 | 0.971 | 0.935 | 1.05 | 1.06 | 1.05 | 0.934 | 0.97 | 0.92 | 0.955 | 0.958 | 0.983 | 0.911 | 0.625
EKVX | 1.04 | 0.922 | 0.943 | 1.04 | 0.973 | 0.922 | 0.602 | 0.907 | 1.06 | 1.05 | 0.959 | 1 | 0.939 | 0.774
